Patent US20080200393A1, “Method and Composition For Treating Angiogenesis and For Preventing Cancer Progression and Metastasis Comprising a Prostate Secretory Protein (Psp94) Family Member” (Ambrillia Biopharma Inc., priority 2004, published 2008)
Where no end group is shown, it is not given here.

How the values were obtained:
Type in all cases: cell-based
CD44 = CD44 cell surface shedding (Western blot of conditioned media); conditions: serum-starved U-87, 300 ug/ml, 24 hours
Method: Decreased cell migration and adhesion on HA was observed when U-87 cells were pretreated with the PCK3145 derivative. This can be interpreted as either a potential downregulation of CD44 expression at the cell surface or by a potential cell surface shedding. The latter hypothesis was tested by incubating serum-starve U-87 cells for 24 hours with the PCK3145 derivative (300 ug/ml), a concentration known to antagonize MMP secretion. The conditioned media was then TCA-precipitated and Westernblotting an immunodetection for a 75 kDa immunoreactive protein using the anti-CD44 antibody was performed. […] This effect is also shown in parallel with MT1-MMP-transfected cells. Such effect has been already reported by many groups and is established as one of the MT1-MMP-mediated functions in the regulation of the ECM adhesion. […] This induction has subsequently been reproduced below. Altogether, these observations provide a rational for the diminished cell migration/adhesion to HA.

ERK = assay: VEGF-induced ERK phosphorylation in BAEC; conditions: BAEC (not shown)
MMP-9 = assay: Gelatin zymography of MatLyLu cell culture media; conditions: MatLyLu cells, 500 ug/ml and 1 mg/ml, 50 ug/ml collagen type-I, serum free, 72 hrs
Method: Zymography. Zymography is a technique generally used to analyze the activity of matrix metalloproteinases (MMPs) in biological samples. It involves the electrophoretic separation of proteins under denaturing (Sodium Dodecyl Sulfate (SDS)) but non-reducing conditions through a polyacrylamide gel containing gelatin (for example, 10% gel containing 1 mg/ml gelatin for MMP-9 and MMP-2 assays). The resolved proteins are re-natured by exchanging SDS with a non-ionic detergent such as Triton X-100 and the gel is incubated in an incubation buffer for activation of MMP-2 and MMP-9 (for example at 37° C. for 18 hrs). The gel is stained with Coomassie blue and the MMP-2 and MMP-9 bands may be visualized as clear bands against a blue background (i.e., the MMPs degrade the gelatin and are visualized as clear bands; pro MMP-2 is 68 kDa and pro-MMP-9 is 92 kDa). These bands can be quantified using densitometry. For example, prior to stimulation, quiescent HUVEC were serum-starved for 16 h in the presence or absence of PCK3145 or PD98059 and then stimulated with VEGF. […] Gelatinolytic activity was detected as unstained bands on a blue background. […]
The media were collected after 72 hours of exposure to the PCK3145 derivative and subjected to gelatin zymography. […] The band intensities were determined using the Image Quant software (version 5.0) from molecular Dynamics. […]

**Q.** “EWQTDNCETCTCYET (cysteine pairing not given here) [PCK3145 derivative, PCK3145 derivative with acetylaminomethyl groups on the three cysteines]” was tested. Which “CD44 cell surface shedding” value (CD44) did it give?
**A.** increased

**Q.** And the “ERK phosphorylation induced by VEGF” value (ERK)?
**A.** inhibitory effect was confirmed

**Q.** And the “MMP-9 secreted in the cell culture media (zymography)” value (MMP-9)?
**A.** dose-dependent reduction
